Experiments:
Experiment in all cases: Reverse Transcriptase Assay
[1] = target: T1, Gag-Pol polyprotein [588-1027,Y769I]/[588-1147,Y769I] (Human immunodeficiency virus 1, UniProt P04585, Y769I); details: pH 7.5; 37 °C
T1 construct: 588-1027; 588-1147
Method: (§1) The inhibition of the RNA-dependent DNA polymerase activity of the HIV-1 reverse transcriptase enzyme was measured using a primer extension assay. The substrate-incorporated radioactivity was quantitated by scintillation counting.

[2] = target: T2, Gag-Pol polyprotein [588-1027,Y776L]/[588-1147,Y776L] (Human immunodeficiency virus 1, UniProt P04585, Y776L)
T2 construct: 588-1027; 588-1147
Method: as §1

[3] = target: T3, Gag-Pol polyprotein [588-1027] (Human immunodeficiency virus type 1 group M subtype B (isolate HXB2), UniProt P04585); details: pH 7.5; 37 °C
T3 construct: 588-1027
Method: as §1

Row | SMILES | Ki [1] [µM] | Ki [2] [µM] | Ki [3] [µM]
1 | CCC1(c2ccc(COc3cccc(Cl)c3)cc2)Oc2cccnc2-n2cccc2C1=O (stereo not given) [8-[4-(3-chlorophenoxymethyl)phenyl]-8-ethyl-9-oxa-2,14-diazatricyclo[8.4.0.0^{2,6}]tetradeca-1(14),3,5,10,12-pentaen-7-one] | < 10 |  | 
2 | CCC1(c2ccc(COc3ccccc3)cc2)Oc2cccnc2-n2cccc2C1=O (stereo not given) [8-ethyl-8-[4-(phenoxymethyl)phenyl]-9-oxa-2,14-diazatricyclo[8.4.0.0^{2,6}]tetradeca-1(14),3,5,10,12-pentaen-7-one] | < 10 | < 10 | 
3 | CCC1(c2ccc(COc3cccc(Cl)c3)cc2)Oc2ccccc2-n2cccc2C1=O (stereo not given) [8-[4-(3-chlorophenoxymethyl)phenyl]-8-ethyl-9-oxa-2-azatricyclo[8.4.0.0^{2,6}]tetradeca-1(14),3,5,10,12-pentaen-7-one] | < 10 |  | 0.1
